Data published in patent US20240368173A1, “TRICYCLIC GPR65 MODULATORS” (PATHIOS THERAPEUTICS LIMITED, priority 2021, published 2024).

What follows are molecules tested against human recombinant GPR65 (Homo sapiens, UniProt Q8IYL9) (assay: Human GPR65 cAMP HTRF antagonist assay). Conditions: not given.
Assay type: cell-based
In short: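 Antagonism measured as suppression of the cAMP rise when pH is dropped to 7.2 (control wells pH 7.9) in 1321N1 cells stably carrying human GPR65. Cells in KRH with 1 mM IBMX and 200 μM EDTA saw compound 30 min, then acid stimulation 30 min; HTRF cAMP detection, normalised, 4-parameter logistic IC50.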

Sequence of human recombinant GPR65 (Q8IYL9 whole entry): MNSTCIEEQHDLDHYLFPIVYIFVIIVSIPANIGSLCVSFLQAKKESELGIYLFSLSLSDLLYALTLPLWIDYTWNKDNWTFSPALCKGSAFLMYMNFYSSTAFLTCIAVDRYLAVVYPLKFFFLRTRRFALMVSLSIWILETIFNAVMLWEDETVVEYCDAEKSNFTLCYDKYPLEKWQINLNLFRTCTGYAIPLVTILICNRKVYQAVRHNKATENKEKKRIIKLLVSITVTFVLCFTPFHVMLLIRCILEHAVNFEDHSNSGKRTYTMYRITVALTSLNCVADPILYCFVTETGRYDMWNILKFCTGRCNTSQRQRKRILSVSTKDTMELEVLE

Row | Compound | IC50 [nM]
1 | COCCCOc1cnc(F)c2c1[C@H]1CC[C@@H](C2)N1C(=O)Nc1cc(Cl)c(Cl)cc1F [Compound 105, (5R,8S)—N-(4,5-Dichloro-2-fluorophenyl)-1-fluoro-4-(3-methoxypropoxy)-6,7,8,9-tetrahydro-5H-5,8-epiminocyclohepta[c]pyridine-10-carboxamide] | < 500
2 | O=C(Nc1ccc(-c2nnc(C(F)(F)F)s2)cc1)N1[C@H]2CC[C@@H]1c1ccnc(F)c1C2 [Compound 66, (5R,8S)-1-Fluoro-N-(4-(5-(trifluoromethyl)-1,3,4-thiadiazol-2-yl)phenyl)-6,7,8,9-tetrahydro-5H-5,8-epiminocyclohepta[c]pyridine-10-carboxamide] | < 500
3 | O=C(Nc1cc(Cl)c(F)cc1Oc1ccc2nonc2c1)N1[C@H]2CC[C@@H]1c1n[nH]c(=O)cc1C2 [Compound 224, (6S,9R)-N-(2-(Benzo[c][1,2,5]oxadiazol-5-yloxy)-5-chloro-4-fluorophenyl)-3-oxo-3,5,6,7,8,9-hexahydro-2H-6,9-epiminocyclohepta[c]pyridazine-10-carboxamide] | 500 to 5000
4 | CC(C)Oc1ccc(-c2cc(F)c(NC(=O)N3[C@H]4CC[C@@H]3c3c[nH]c(=O)cc3C4)cc2Cl)cn1 [Compound 273, (6S,9R)-N-(5-Chloro-2-fluoro-4-(6-isopropoxypyridin-3-yl)phenyl)-3-oxo-3,5,6,7,8,9-hexahydro-2H-6,9-epiminocyclohepta[c]pyridine-10-carboxamide] | < 500
5 | N#Cc1cc(NC(=O)N2[C@H]3CC[C@@H]2c2n[nH]c(=O)cc2C3)ccc1C(F)(F)F [Compound 41, (6S,9R)-N-(3-Cyano-4-(trifluoromethyl)phenyl)-3-oxo-3,5,6,7,8,9-hexahydro-2H-6,9-epiminocyclohepta[c]pyridazine-10-carboxamide] | < 500
6 | O=C(Nc1cc(Cl)c(Cl)cc1F)N1[C@H]2CC[C@@H]1c1c(OCc3ccccc3)cnc(F)c1C2 [Compound 102, (5R,8S)-4-(benzyloxy)-N-(4,5-dichloro-2-fluorophenyl)-1-fluoro-6,7,8,9-tetrahydro-5H-5,8-epiminocyclohepta[c]pyridine-10-carboxamide] | < 500
7 | COc1cnccc1-c1cc(F)c(NC(=O)N2[C@H]3CC[C@@H]2c2ccnc(F)c2C3)cc1Cl [Compound 297, (5R,8S)-N-(5-Chloro-2-fluoro-4-(3-methoxypyridin-4-yl)phenyl)-1-fluoro-6,7,8,9-tetrahydro-5H-5,8-epiminocyclohepta[c]pyridine-10-carboxamide] | < 500
8 | O=C(Nc1cc(Cl)c(-c2ccc(F)nc2)cn1)N1[C@H]2CC[C@@H]1c1n[nH]c(=O)cc1C2 [Compound 230, (6S,9R)-N-(4-Chloro-6′-fluoro-[3,3′-bipyridin]-6-yl)-3-oxo-3,5,6,7,8,9-hexahydro-2H-6,9-epiminocyclohepta[c]pyridazine-10-carboxamide] | < 500
9 | Cc1nc2ccc(-c3cc(F)c(NC(=O)N4[C@H]5CC[C@@H]4c4ccnc(F)c4C5)cc3Cl)cc2o1 [Compound 205, (5R,8S)-N-(5-Chloro-2-fluoro-4-(2-methylbenzo[d]oxazol-6-yl)phenyl)-1-fluoro-6,7,8,9-tetrahydro-5H-5,8-epiminocyclohepta[c]pyridine-10-carboxamide] | < 500
10 | O=C(Nc1cc(Cl)c(C(F)(F)F)cc1F)N1[C@@H]2CC[C@H]1[C@H](F)c1c2ccnc1F [Compound 193, (5R,8S,9R)-N-(5-Chloro-2-fluoro-4-(trifluoromethyl)phenyl)-1,9-difluoro-6,7,8,9-tetrahydro-5H-5,8-epiminocyclohepta[c]pyridine-10-carboxamide] | < 500
11 | O=C(Nc1cc(Cl)c(-c2cnc(F)c(F)c2)cc1F)N1[C@H]2CC[C@@H]1c1n[nH]c(=O)cc1C2 [Compound 279, (6S,9R)-N-(5-Chloro-4-(5,6-difluoropyridin-3-yl)-2-fluorophenyl)-3-oxo-3,5,6,7,8,9-hexahydro-2H-6,9-epiminocyclohepta[c]pyridazine-10-carboxamide] | < 500
12 | COc1cc(-c2cc(F)c(NC(=O)N3[C@H]4CC[C@@H]3c3n[nH]c(=O)cc3C4)cc2Cl)ccn1 [Compound 199, (6S,9R)-N-(5-Chloro-2-fluoro-4-(2-methoxypyridin-4-yl)phenyl)-3-oxo-3,5,6,7,8,9-hexahydro-2H-6,9-epiminocyclohepta[c]pyridazine-10-carboxamide] | < 500
13 | O=C(Nc1cc(-c2ccccc2)c(C(F)(F)F)cc1F)N1[C@H]2CC[C@@H]1c1n[nH]c(=O)cc1C2 [Compound 258, (6S,9R)-N-(4-Fluoro-6-(trifluoromethyl)-[1,1′-biphenyl]-3-yl)-3-oxo-3,5,6,7,8,9-hexahydro-2H-6,9-epiminocyclohepta[c]pyridazine-10-carboxamide] | < 500
14 | O=C(Nc1cc(Cl)c(C2CC2)cc1F)N1[C@H]2CC[C@@H]1c1ccnc(F)c1C2 [Compound 63, (5R,8S)-N-(5-Chloro-4-cyclopropyl-2-fluorophenyl)-1-fluoro-6,7,8,9-tetrahydro-5H-5,8-epiminocyclohepta[c]pyridine-10-carboxamide] | < 500
15 | Cc1nc2cc(-c3cc(F)c(NC(=O)N4[C@H]5CC[C@@H]4c4c[nH]c(=O)cc4C5)cc3Cl)ccc2o1 [Compound 232, (6S,9R)-N-(5-Chloro-2-fluoro-4-(2-methylbenzo[d]oxazol-5-yl)phenyl)-3-oxo-3,5,6,7,8,9-hexahydro-2H-6,9-epiminocyclohepta[c]pyridine-10-carboxamide] | < 500
16 | CO[C@H]1CC[C@@H](Oc2ccc(-c3cc(F)c(NC(=O)N4[C@H]5CC[C@@H]4c4n[nH]c(=O)cc4C5)cc3Cl)cn2)CC1 [Compound 343, (6S,9R)-N-(5-Chloro-2-fluoro-4-(6-(((1s,4s)-4-methoxycyclohexyl)oxy)pyridin-3-yl)phenyl)-3-oxo-3,5,6,7,8,9-hexahydro-2H-6,9-epiminocyclohepta[c]pyridazine-10-carboxamide] | < 500
17 | CC(C)Oc1ccc(-c2cc(F)c(NC(=O)N3[C@H]4CC[C@@H]3c3ccnc(F)c3C4)cc2Cl)cn1 [Compound 274, (5R,8S)-N-(5-Chloro-2-fluoro-4-(6-isopropoxypyridin-3-yl)phenyl)-1-fluoro-6,7,8,9-tetrahydro-5H-5,8-epiminocyclohepta[c]pyridine-10-carboxamide] | < 500
18 | O=C(Nc1ccc(OC(F)(F)F)c(Cl)c1)N1[C@H]2CC[C@@H]1c1n[nH]c(=O)cc1C2 [Compound 46, (6S,9R)-N-(3-Chloro-4-(trifluoromethoxy)phenyl)-3-oxo-3,5,6,7,8,9-hexahydro-2H-6,9-epiminocyclohepta[c]pyridazine-10-carboxamide] | < 500
19 | Cn1ccc2c(-c3cc(F)c(NC(=O)N4[C@H]5CC[C@@H]4c4n[nH]c(=O)cc4C5)cc3Cl)ccnc21 [Compound 282, (6S,9R)-N-(5-Chloro-2-fluoro-4-(1-methyl-1H-pyrrolo[2,3-b]pyridin-4-yl)phenyl)-3-oxo-3,5,6,7,8,9-hexahydro-2H-6,9-epiminocyclohepta[c]pyridazine-10-carboxamide] | < 500
20 | O=C(Nc1cc(Cl)c(-c2ccnc(F)c2)cc1F)N1[C@H]2CC[C@@H]1c1n[nH]c(=O)cc1C2 [Compound 266, (6S,9R)-N-(5-Chloro-2-fluoro-4-(2-fluoropyridin-4-yl)phenyl)-3-oxo-3,5,6,7,8,9-hexahydro-2H-6,9-epiminocyclohepta[c]pyridazine-10-carboxamide] | < 500
21 | O=C(Nc1cc(Cl)c(-c2cnn(CC3CC3)c2)cc1F)N1[C@H]2CC[C@@H]1c1n[nH]c(=O)cc1C2 [Compound 144, (6S,9R)-N-(5-Chloro-4-(1-(cyclopropylmethyl)-1H-pyrazol-4-yl)-2-fluorophenyl)-3-oxo-3,5,6,7,8,9-hexahydro-2H-6,9-epiminocyclohepta[c]pyridazine-10-carboxamide] | < 500
22 | O=C(Nc1cc(Cl)c(I)cc1F)N1[C@H]2CC[C@@H]1c1ccnc(F)c1C2 [Compound 77, (5R,8S)-N-(5-Chloro-2-fluoro-4-iodophenyl)-1-fluoro-6,7,8,9-tetrahydro-5H-5,8-epiminocyclohepta[c]pyridine-10-carboxamide] | < 500
23 | O=C(Nc1cc(Cl)c(Cl)cc1F)N1[C@H]2CC[C@@H]1c1c[nH]c(=O)nc1C2 [Compound 22, (5R,8S)-N-(4,5-Dichloro-2-fluorophenyl)-2-oxo-3,5,6,7,8,9-hexahydro-2H-5,8-epiminocyclohepta[d]pyrimidine-10-carboxamide] | < 500
24 | COc1cncc(-c2cc(F)c(NC(=O)N3[C@H]4CC[C@@H]3c3ccnc(F)c3C4)cc2Cl)c1 [Compound 248, (5R,8S)-N-(5-Chloro-2-fluoro-4-(5-methoxypyridin-3-yl)phenyl)-1-fluoro-6,7,8,9-tetrahydro-5H-5,8-epiminocyclohepta[c]pyridine-10-carboxamide] | < 500
25 | COc1ccc(-c2cc(F)c(NC(=O)N3[C@H]4CC[C@@H]3c3n[nH]c(=O)cc3C4)cc2Cl)cn1 [Compound 171, (6S,9R)-N-(5-Chloro-2-fluoro-4-(6-methoxypyridin-3-yl)phenyl)-3-oxo-3,5,6,7,8,9-hexahydro-2H-6,9-epiminocyclohepta[c]pyridazine-10-carboxamide] | < 500
26 | C=C1c2ccnc(F)c2[C@H]2CC[C@@H]1N2C(=O)Nc1cc(Cl)c(Cl)cc1F [Compound 106, (6S,9R)-N-(4,5-Dichloro-2-fluorophenyl)-1-fluoro-5-methylene-6,7,8,9-tetrahydro-5H-6,9-epiminocyclohepta[c]pyridine-10-carboxamide] | 500 to 5000

Same assay, conditions: 1321N1-hrGPR65 cells, cAMP HTRF, assay pH 7.2; read-out: hGPR65 IC50 (Activity of selected compounds according to the invention)

Row | Compound | IC50 [nM]
27 | O=C(Nc1cc(Cl)c(Cl)cc1F)N1[C@H]2CC[C@@H]1c1nccc(F)c1C2 [Compound 91, (6S,9R)-N-(4,5-dichloro-2-fluorophenyl)-4-fluoro-6,7,8,9-tetrahydro-5H-6,9-epiminocyclohepta[b]pyridine-10-carboxamide] | 500 to 5000
28 | O=C(Nc1ccc(Br)c(Cl)c1)N1[C@@H]2CC[C@H]1c1n[nH]c(=O)cc1C2 [Compound 40, (6R,9S)-N-(4-Bromo-3-chlorophenyl)-3-oxo-3,5,6,7,8,9-hexahydro-2H-6,9-epiminocyclohepta[c]pyridazine-10-carboxamide] | > 5000
